Experimental data as given in US5043332A, “Novel 11β-substituted -19-nor-steriods” (priority 1981, dated 1991).

Legend:
[1] = target: T1, Mineralcorticoidal receptor of kidneys of the rat (Rattus norvegicus, UniProt P22199); test: Mineralcorticoidal receptor binding (displacement of tritiated aldosterone)
T1 construct: from tissue; host or cells: rat kidney, 105,000 g supernatant (adrenalectomized male Sprague-Dawley rats)
T1 sequence (P22199 1-981): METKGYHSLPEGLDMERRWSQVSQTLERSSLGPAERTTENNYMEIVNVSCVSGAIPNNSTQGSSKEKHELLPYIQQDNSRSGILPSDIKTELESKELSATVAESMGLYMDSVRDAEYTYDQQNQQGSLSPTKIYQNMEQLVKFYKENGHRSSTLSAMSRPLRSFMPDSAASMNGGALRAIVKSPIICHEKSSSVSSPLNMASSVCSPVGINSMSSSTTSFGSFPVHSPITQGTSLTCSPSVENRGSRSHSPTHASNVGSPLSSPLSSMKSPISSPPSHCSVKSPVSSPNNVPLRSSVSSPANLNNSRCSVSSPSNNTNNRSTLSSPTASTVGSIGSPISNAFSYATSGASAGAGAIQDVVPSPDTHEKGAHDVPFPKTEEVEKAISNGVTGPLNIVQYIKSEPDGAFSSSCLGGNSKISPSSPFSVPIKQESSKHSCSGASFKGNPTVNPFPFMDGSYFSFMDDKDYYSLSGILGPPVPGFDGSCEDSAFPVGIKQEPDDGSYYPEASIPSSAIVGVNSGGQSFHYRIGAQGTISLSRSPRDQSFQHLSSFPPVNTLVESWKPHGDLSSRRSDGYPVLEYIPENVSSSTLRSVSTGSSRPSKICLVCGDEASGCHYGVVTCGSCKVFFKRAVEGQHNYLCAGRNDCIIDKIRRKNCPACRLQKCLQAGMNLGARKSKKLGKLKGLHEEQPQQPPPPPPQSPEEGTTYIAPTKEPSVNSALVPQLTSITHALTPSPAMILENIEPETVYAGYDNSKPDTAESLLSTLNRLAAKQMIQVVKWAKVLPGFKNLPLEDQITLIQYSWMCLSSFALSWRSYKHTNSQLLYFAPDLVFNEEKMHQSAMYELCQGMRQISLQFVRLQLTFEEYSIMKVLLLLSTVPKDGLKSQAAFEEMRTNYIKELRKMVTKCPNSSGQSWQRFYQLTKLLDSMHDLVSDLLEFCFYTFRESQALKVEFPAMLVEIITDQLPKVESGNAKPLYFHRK
Experimental: A. Mineralcorticoidal receptor of kidneys of the rat
Male Sprague-Dawley EOPS rats weighing 140 to 160 g surrenalectomized 4 to 8 days previously were killed and their kidneys were perfused in situ with 50 ml of a buffer (10 mM of Tris 0.25M of Saccharose and sufficient hydrochloric acid for a pH of 7.4). The kidneys were then removed, decapsulated and homogenized at 0° C. with a polytetrafluoroethylene-glass Potter (1 g of tissue per 3 ml of buffer). The homogenate was centrifuged for 10 minutes at 800 g at 9° C.
After elimination of the fixation of tritiated aldosterone with glucocorticoid receptor, 21-methyl-Δ^1,4,6 -pregnatriene-20-yne-11β,17β-diol-3-one fixed only with the glucocorticoid receptor was added to the supernatant at a final concentration of 10^-6 M. The suprenatant was ultracentrifuged at 105,000 g for 60 minutes and 0° C. and aliquoits of the resulting surnageant were incubated at 0° C. with a constant concentration (T) of tritiated aldosterone in the presence of increasing concentrations (0-2500×10^-9 M) of cold aldosterone or the cold test product. After a time (t) of incubation, the concentration of tied tritiated aldosterone (B) was measured by the technique of adsoprtion on carbon dextran.
The calculation of the relative affinity of […] (ARL) was identical for all of the above receptor tests. One traced the following two curves: the percentage of tied tritiated hormone B/T as a function of the logarithm of the cold hormone concentration and B/T as a function of the logarithm of the concentration of the cold test product. One determined the line of the equation. [formula]
The intersection of the I50 line and the curves permits one to determine the concentrations of the cold hormone of the reference (CH) and the cold test compound (CX) which inhibit by 50% the tieing of tritiated hormone with the receptor. The relative affinity of tieing (ARL) of the test product was determined by the equation: [formula]

[2] = target: T2, Progestogen receptor of the uterus of rabbits (Oryctolagus cuniculus, UniProt P06186); test: Progestogen receptor binding (displacement of tritiated product R); design: species or system rabbit
T2 construct: The uterus was removed, weighed and homogenized at 0° C; from tissue; host or cells: rabbit uterus, 105,000 g supernatant (estradiol-primed immature rabbits)
T2 sequence (P06186 1-930): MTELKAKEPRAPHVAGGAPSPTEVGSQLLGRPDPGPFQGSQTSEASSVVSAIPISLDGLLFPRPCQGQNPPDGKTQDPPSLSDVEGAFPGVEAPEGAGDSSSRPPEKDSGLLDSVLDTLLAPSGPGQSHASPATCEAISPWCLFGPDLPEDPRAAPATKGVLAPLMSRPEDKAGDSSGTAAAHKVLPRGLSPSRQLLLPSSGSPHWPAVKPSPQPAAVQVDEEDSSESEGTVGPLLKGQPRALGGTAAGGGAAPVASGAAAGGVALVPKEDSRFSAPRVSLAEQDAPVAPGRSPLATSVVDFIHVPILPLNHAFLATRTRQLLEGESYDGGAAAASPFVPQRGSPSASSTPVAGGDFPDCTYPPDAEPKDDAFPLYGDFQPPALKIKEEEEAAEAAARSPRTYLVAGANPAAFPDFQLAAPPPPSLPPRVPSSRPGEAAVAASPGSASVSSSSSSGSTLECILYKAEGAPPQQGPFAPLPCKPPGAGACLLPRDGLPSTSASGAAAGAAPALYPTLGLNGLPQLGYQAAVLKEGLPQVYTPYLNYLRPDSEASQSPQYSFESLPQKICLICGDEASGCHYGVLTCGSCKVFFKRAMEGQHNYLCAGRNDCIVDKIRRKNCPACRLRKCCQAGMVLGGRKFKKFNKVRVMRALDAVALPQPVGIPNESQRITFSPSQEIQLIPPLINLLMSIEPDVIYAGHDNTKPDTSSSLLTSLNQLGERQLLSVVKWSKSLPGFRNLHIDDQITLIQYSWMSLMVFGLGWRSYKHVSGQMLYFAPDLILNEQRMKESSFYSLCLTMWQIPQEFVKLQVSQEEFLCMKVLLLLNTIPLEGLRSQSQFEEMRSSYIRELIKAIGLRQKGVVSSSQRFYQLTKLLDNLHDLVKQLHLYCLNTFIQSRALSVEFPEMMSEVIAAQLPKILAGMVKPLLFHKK

[3] = second table, incubation 24 H at 0° C.
[4] = second table, incubation 2 H at 0° C.

| SMILES | relative affinity of tieing (ARL), Mineralocorticoid [1, 3] | relative affinity of tieing (ARL), Progestogen [2, 4] | relative affinity of tieing (ARL), Progestogen [2, 3] | relative affinity of tieing (ARL), Mineralocorticoid ([1]; incubation 1 H at 0° C.) | relative affinity of tieing (ARL), Mineralocorticoid ([1]; incubation 24 H at 0° C.) | relative affinity of tieing (ARL), Progestogen ([2]; incubation 2 H at 0° C.) | relative affinity of tieing (ARL), Progestogen ([2]; incubation 24 H at 0° C.) | affinity for progestogen receptors (in words) ([2]; conclusion) |
| --- | --- | --- | --- | --- | --- | --- | --- | --- |
| C[C@]12C[C@H](c3ccc([N+](C)(C)[O-])cc3)C3=C4CCC(=O)C=C4CC[C@H]3[C@@H]1CC[C@@]2(O)C#CCl [Example 26, N-oxide of 11β-[4-(N,N-dimethylamino)-phenyl]-21-chloro-19-nor-17α-Δ^4,9-pregnadiene-20-yne-17β-ol-3-one] | 0 | 6,3 | 8,3 |  |  |  |  |  |
| C#C[C@@]1(O)CC[C@H]2[C@@H]3CCC4=CC(=O)CCC4=C3[C@@H](c3ccc(N(C)C)cc3)C[C@@]21C [Example 21, 11β-[4-(N,N-dimethylamino)-phenyl]-17β-ethynyl-Δ^4,9-estradiene-17α-ol-3-one] | 0,8 | 10 | 4,3 |  |  |  |  |  |
| CC#C[C@]1(O)CC[C@H]2[C@@H]3CCC4=CC(=O)C(C)(C)CC4=C3[C@@H](c3ccc(N(C)C)cc3)C[C@@]21C [Example 1, 2,2-dimethyl-11β-(4-dimethylaminophenyl)-17α-(prop-1-ynyl)-Δ^4,9-estradiene-17β-ol-3-one] |  |  |  | < 0,1 | < 0,1 | 4 | 4 |  |
| C#C[C@]1(O)CC[C@H]2[C@@H]3CCC4=CC(=O)CCC4=C3[C@@H](c3ccc(N(C)C)cc3)C[C@@]21C [Example 32, 11β-[4-(N,N-dimethylamino)-phenyl]-17α-ethynyl-Δ^4,9-estradiene-17β-ol-3-one] | 0 | 81 | 351 |  |  |  |  | very remarkable affinity |
